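A five-concentration, 48-hour dose response in 96-well plates underlies each endpoint, interpolated linearly between surrounding concentrations. TGI: total growth inhibition.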
Columns and labels:
Assay in all cases: growth of human tumour cells (NCI), 48 h
UO-31 renal = tested on: UO-31 renal
HCT-116 colon = tested on: HCT-116 colon
LOX IMVI melanoma = tested on: LOX IMVI melanoma
ACHN renal = tested on: ACHN renal
SK-MEL-5 melanoma = tested on: SK-MEL-5 melanoma
SR leukemia = tested on: SR leukemia
HT29 colon = tested on: HT29 colon
UACC-257 melanoma = tested on: UACC-257 melanoma
SNB-19 CNS = tested on: SNB-19 CNS
MALME-3M melanoma = tested on: MALME-3M melanoma
MDA-N = tested on: MDA-N
TK-10 renal = tested on: TK-10 renal
COLO 205 colon = tested on: COLO 205 colon
SK-MEL-28 melanoma = tested on: SK-MEL-28 melanoma
NCI-H23 lung = tested on: NCI-H23 lung
NCI-H226 lung = tested on: NCI-H226 lung
NCI-H522 lung = tested on: NCI-H522 lung
HS 578T breast = tested on: HS 578T breast
786-0 renal = tested on: 786-0 renal
K-562 leukemia = tested on: K-562 leukemia
MDA-MB-231 breast = tested on: MDA-MB-231 breast
SNB-75 CNS = tested on: SNB-75 CNS
SF-539 CNS = tested on: SF-539 CNS
OVCAR-8 ovarian = tested on: OVCAR-8 ovarian
HOP-62 NSCLC = tested on: HOP-62 NSCLC
U251 CNS = tested on: U251 CNS
HCC-2998 colon = tested on: HCC-2998 colon
DU-145 prostate = tested on: DU-145 prostate
IGROV1 ovarian = tested on: IGROV1 ovarian
NCI/ADR-RES ovarian = tested on: NCI/ADR-RES ovarian
MDA-MB-435 = tested on: MDA-MB-435
MOLT-4 leukemia = tested on: MOLT-4 leukemia
SF-268 CNS = tested on: SF-268 CNS
PC-3 prostate = tested on: PC-3 prostate
EKVX NSCLC = tested on: EKVX NSCLC
SK-MEL-2 melanoma = tested on: SK-MEL-2 melanoma
HL-60(TB) leukemia = tested on: HL-60(TB) leukemia
M14 melanoma = tested on: M14 melanoma
NCI-H460 lung = tested on: NCI-H460 lung
OVCAR-3 ovarian = tested on: OVCAR-3 ovarian
HCT-15 colon = tested on: HCT-15 colon
MCF7 breast = tested on: MCF7 breast
KM12 colon = tested on: KM12 colon
A549 NSCLC = tested on: A549 NSCLC
RPMI-8226 leukemia = tested on: RPMI-8226 leukemia
BT-549 breast = tested on: BT-549 breast
CCRF-CEM leukemia = tested on: CCRF-CEM leukemia
SW-620 colon = tested on: SW-620 colon
UACC-62 melanoma = tested on: UACC-62 melanoma
OVCAR-5 ovarian = tested on: OVCAR-5 ovarian
RXF 393 renal = tested on: RXF 393 renal
SN12C renal = tested on: SN12C renal
CAKI-1 renal = tested on: CAKI-1 renal
SF-295 CNS = tested on: SF-295 CNS
OVCAR-4 ovarian = tested on: OVCAR-4 ovarian
HOP-92 NSCLC = tested on: HOP-92 NSCLC
A498 renal = tested on: A498 renal
SK-OV-3 ovarian = tested on: SK-OV-3 ovarian

## CCCCNc1nc(N)nc(Nc2ccc(Br)cc2)c1N=O
UO-31 renal
  TGI: > 100 µM
HCT-116 colon
  TGI: > 100 µM
LOX IMVI melanoma
  TGI: > 100 µM
ACHN renal
  TGI: > 100 µM
SK-MEL-5 melanoma
  TGI: > 100 µM
SR leukemia
  TGI: > 100 µM
HT29 colon
  TGI: > 100 µM
UACC-257 melanoma
  TGI: > 100 µM
SNB-19 CNS
  TGI: > 100 µM
MALME-3M melanoma
  TGI: > 100 µM
MDA-N
  TGI: > 100 µM
TK-10 renal
  TGI: > 100 µM
COLO 205 colon
  TGI: > 100 µM
SK-MEL-28 melanoma
  TGI: > 100 µM
NCI-H23 lung
  TGI: > 100 µM
NCI-H226 lung
  TGI: > 100 µM
NCI-H522 lung
  TGI: > 100 µM
HS 578T breast
  TGI: 82.8 µM
786-0 renal
  TGI: > 100 µM
K-562 leukemia
  TGI: > 100 µM
MDA-MB-231 breast
  TGI: > 100 µM
SNB-75 CNS
  TGI: > 100 µM
SF-539 CNS
  TGI: > 100 µM
OVCAR-8 ovarian
  TGI: > 100 µM
HOP-62 NSCLC
  TGI: > 100 µM
U251 CNS
  TGI: > 100 µM
HCC-2998 colon
  TGI: > 100 µM
DU-145 prostate
  TGI: > 100 µM
IGROV1 ovarian
  TGI: > 100 µM
NCI/ADR-RES ovarian
  TGI: > 100 µM
MDA-MB-435
  TGI: > 100 µM
MOLT-4 leukemia
  TGI: > 100 µM
SF-268 CNS
  TGI: > 100 µM
PC-3 prostate
  TGI: > 100 µM
EKVX NSCLC
  TGI: > 100 µM
SK-MEL-2 melanoma
  TGI: > 100 µM
HL-60(TB) leukemia
  TGI: > 100 µM
M14 melanoma
  TGI: > 100 µM
NCI-H460 lung
  TGI: > 100 µM
OVCAR-3 ovarian
  TGI: > 100 µM
HCT-15 colon
  TGI: > 100 µM
MCF7 breast
  TGI: > 100 µM
KM12 colon
  TGI: > 100 µM
A549 NSCLC
  TGI: > 100 µM
RPMI-8226 leukemia
  TGI: > 100 µM
BT-549 breast
  TGI: > 100 µM
CCRF-CEM leukemia
  TGI: > 100 µM
SW-620 colon
  TGI: > 100 µM
UACC-62 melanoma
  TGI: > 100 µM
OVCAR-5 ovarian
  TGI: > 100 µM
RXF 393 renal
  TGI: > 100 µM
SN12C renal
  TGI: > 100 µM

## O=c1[nH]c(=S)[nH]c2c1C(c1ccc(Cl)cc1)c1c([nH]c(=S)[nH]c1=O)O2
UO-31 renal
  TGI: > 100 µM
HCT-116 colon
  TGI: > 100 µM
LOX IMVI melanoma
  TGI: > 100 µM
ACHN renal
  TGI: > 100 µM
SK-MEL-5 melanoma
  TGI: > 100 µM
CAKI-1 renal
  TGI: > 100 µM
SF-295 CNS
  TGI: > 100 µM
HT29 colon
  TGI: > 100 µM
UACC-257 melanoma
  TGI: > 100 µM
SNB-19 CNS
  TGI: > 100 µM
MALME-3M melanoma
  TGI: > 100 µM
MDA-N
  TGI: > 100 µM
TK-10 renal
  TGI: > 100 µM
COLO 205 colon
  TGI: > 100 µM
SK-MEL-28 melanoma
  TGI: > 100 µM
NCI-H23 lung
  TGI: > 100 µM
NCI-H226 lung
  TGI: > 100 µM
NCI-H522 lung
  TGI: > 100 µM
HS 578T breast
  TGI: > 100 µM
OVCAR-4 ovarian
  TGI: > 100 µM
786-0 renal
  TGI: > 100 µM
K-562 leukemia
  TGI: > 100 µM
MDA-MB-231 breast
  TGI: > 100 µM
OVCAR-8 ovarian
  TGI: > 100 µM
HOP-62 NSCLC
  TGI: > 100 µM
U251 CNS
  TGI: > 100 µM
DU-145 prostate
  TGI: > 100 µM
IGROV1 ovarian
  TGI: > 100 µM
NCI/ADR-RES ovarian
  TGI: > 100 µM
MDA-MB-435
  TGI: > 100 µM
HOP-92 NSCLC
  TGI: > 100 µM
MOLT-4 leukemia
  TGI: > 100 µM
SF-268 CNS
  TGI: > 100 µM
PC-3 prostate
  TGI: > 100 µM
EKVX NSCLC
  TGI: > 100 µM
SK-MEL-2 melanoma
  TGI: > 100 µM
HL-60(TB) leukemia
  TGI: > 100 µM
M14 melanoma
  TGI: > 100 µM
NCI-H460 lung
  TGI: > 100 µM
OVCAR-3 ovarian
  TGI: > 100 µM
HCT-15 colon
  TGI: > 100 µM
MCF7 breast
  TGI: > 100 µM
KM12 colon
  TGI: > 100 µM
A498 renal
  TGI: > 100 µM
A549 NSCLC
  TGI: > 100 µM
RPMI-8226 leukemia
  TGI: > 100 µM
BT-549 breast
  TGI: > 100 µM
CCRF-CEM leukemia
  TGI: > 100 µM
SW-620 colon
  TGI: > 100 µM
UACC-62 melanoma
  TGI: > 100 µM
OVCAR-5 ovarian
  TGI: > 100 µM
RXF 393 renal
  TGI: > 100 µM
SN12C renal
  TGI: > 100 µM

## NC(=O)N/N=C\c1ccccc1OCc1cccc(COc2ccccc2/C=N\NC(N)=O)n1
UO-31 renal
  TGI: > 100 µM
HCT-116 colon
  TGI: > 100 µM
LOX IMVI melanoma
  TGI: > 100 µM
ACHN renal
  TGI: > 100 µM
SK-MEL-5 melanoma
  TGI: > 100 µM
CAKI-1 renal
  TGI: > 100 µM
SF-295 CNS
  TGI: 33.8 µM
HT29 colon
  TGI: > 100 µM
UACC-257 melanoma
  TGI: > 100 µM
SNB-19 CNS
  TGI: > 100 µM
MALME-3M melanoma
  TGI: > 100 µM
MDA-N
  TGI: > 100 µM
TK-10 renal
  TGI: 85.6 µM
COLO 205 colon
  TGI: > 100 µM
SK-MEL-28 melanoma
  TGI: > 100 µM
NCI-H23 lung
  TGI: > 100 µM
NCI-H226 lung
  TGI: > 100 µM
NCI-H522 lung
  TGI: > 100 µM
HS 578T breast
  TGI: > 100 µM
OVCAR-4 ovarian
  TGI: > 100 µM
786-0 renal
  TGI: > 100 µM
K-562 leukemia
  TGI: > 100 µM
MDA-MB-231 breast
  TGI: 32.8 µM
SF-539 CNS
  TGI: 47.9 µM
OVCAR-8 ovarian
  TGI: > 100 µM
HOP-62 NSCLC
  TGI: 27 µM
U251 CNS
  TGI: 18.7 µM
HCC-2998 colon
  TGI: > 100 µM
DU-145 prostate
  TGI: 47.7 µM
IGROV1 ovarian
  TGI: > 100 µM
NCI/ADR-RES ovarian
  TGI: > 100 µM
MDA-MB-435
  TGI: > 100 µM
HOP-92 NSCLC
  TGI: 55.6 µM
MOLT-4 leukemia
  TGI: > 100 µM
SF-268 CNS
  TGI: 88.6 µM
PC-3 prostate
  TGI: > 100 µM
EKVX NSCLC
  TGI: 69.5 µM
SK-MEL-2 melanoma
  TGI: > 100 µM
HL-60(TB) leukemia
  TGI: > 100 µM
SK-OV-3 ovarian
  TGI: 49.9 µM
M14 melanoma
  TGI: > 100 µM
NCI-H460 lung
  TGI: > 100 µM
OVCAR-3 ovarian
  TGI: > 100 µM
HCT-15 colon
  TGI: > 100 µM
MCF7 breast
  TGI: > 100 µM
KM12 colon
  TGI: > 100 µM
A498 renal
  TGI: > 100 µM
A549 NSCLC
  TGI: > 100 µM
RPMI-8226 leukemia
  TGI: > 100 µM
BT-549 breast
  TGI: 81.8 µM
CCRF-CEM leukemia
  TGI: > 100 µM
SW-620 colon
  TGI: > 100 µM
UACC-62 melanoma
  TGI: 51.6 µM
OVCAR-5 ovarian
  TGI: > 100 µM
RXF 393 renal
  TGI: 31.5 µM
SN12C renal
  TGI: > 100 µM

From PubChem BioAssay (NCI)
